{"source": "patent US5605929A", "about": "“Methods and compositions for inhibiting 5α-reductase activity” (priority 1995, dated 1997)", "key": {"[1]": {"biological_target": "T1, 5α-Reductase of Rat Liver Microsomes (Rattus norvegicus, UniProt P24008)", "T1 sequence (P24008 1-259)": "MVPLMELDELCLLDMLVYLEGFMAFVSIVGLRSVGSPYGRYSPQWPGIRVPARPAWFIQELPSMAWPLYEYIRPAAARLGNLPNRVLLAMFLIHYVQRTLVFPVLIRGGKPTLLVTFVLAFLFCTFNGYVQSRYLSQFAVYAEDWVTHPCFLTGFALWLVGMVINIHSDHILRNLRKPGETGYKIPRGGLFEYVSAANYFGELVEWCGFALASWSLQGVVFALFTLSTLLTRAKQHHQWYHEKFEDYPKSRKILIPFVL", "description": "Briefly, the binding assay solution, in a final volume of 0.15 ml, contained microsomes (2-20 μg of protein), 0.08 μCi of [^3 H]4-MA, 0.1 mM-NADPH, 1 mM-dithiothreitol and 50 mM-potassium phosphate, pH 7.0, with or without the indicated amount of a lipid or an inhibitor preparation. Lipids were dissolved in ethanol and added in 1-5 μl volumes. Control tubes received the same amount of ethanol. After incubation at 0° C. for 1 h, the [^3 H]4-MA bound to microsomes was determined by collecting microsomes on a Whatman GF/1F glass fibre filter and washing with 10 ml of 20 mM-potassium phosphate, pH 7.0, containing 0.01% CHAPS to remove unbound [^3 H]4-MA.\n(§2) Microsomes were prepared at 4° C. from a buffered 0.32M-sucrose homogenate of human liver and from the livers of adult Sprague-Dawley female rats by differential centrifugation as described previously (Liang et al., 1990), and were used in the assay of 5α-reductase activity. In some experiments, microsomes were solubilized with 0.1% polyoxyethylene ether W-1 as described previously (Liang et al., 1990), except for the substitution of polyoxyethylene ether W-1 for Lubrol-WX."}, "[2]": {"tested_on": "forehead sebum production", "assay": "Forehead sebum production (L/R ratio), human male", "type": "in vivo", "method": "A volunteer was used to test and analyze sebum production from the forehead region. The forehead was washed thoroughly by soap twice and cleaned by 70% isopropyl alcohol twice. Sebum production was measured 30 to 60 minutes later by a sebum meter (Courage/Khazaka Electronic GmbH, Germany). The sebum meter tape probe (7 mm×8 mm) covered 56 mm^2 area in each measurement. Ten measurements were made within the 4 cm square area (16 cm^2) located at the middle of the left or right side forehead between the eyebrow and the hair line.\nThe sebum meter detected the difference in the transparency of the tape before and after the tape was placed on the forehead for 30 seconds and expressed the difference in an arbitrary number (S-value) between 0 to 300 (or higher). S-values of sebum accumulated on the foreheads of men are usually 200 to 300."}, "microsomal 5α-reductase": {"biological_target": "T2, microsomal 5α-reductase (Rattus norvegicus, UniProt P24008)", "T2 construct": "from the livers of adult Sprague-Dawley female rats; from tissue; host or cells: liver microsomes of adult female Sprague-Dawley rats", "T2 sequence (P24008 1-259)": "T1 sequence (P24008 1-259)", "assay": "Enzymatic assay of microsomal 5α-reductase (testosterone to 5α-DHT)", "type": "biochemical", "description": "as §2"}, "[3]": {"tested_on": "Human Prostatic Cancer Cells", "assay": "Cell morphology during 2 hour incubation", "type": "cell-based"}, "PC-3": {"tested_on": "PC-3", "assay": "5α-DHT formation from [3H]testosterone by PC-3 cells", "type": "cell-based, human", "details": "Homo sapiens, PC-3, read-out: 5α-DHT formed (% of control)"}, "[4]": {"tested_on": "human breast tumor cell line, MDF-7", "assay": "Human breast tumor growth in nude mice", "type": "in vivo", "details": "1 mg/mouse/day, 2 weeks", "method": "For breast tumor studies, human breast tumor cell line, MDF-7 (1 million cells) was injected into female nude mice. After 5 weeks, the tumor was over 1000 mm^3."}, "[5]": {"tested_on": "androgen-dependent organs", "type": "in vivo, rat", "method": "The control rats were injected with 0.3 ml of 30% ethanol."}, "[6]": {"biological_target": "T3, HIV-1 reverse transcriptase (Human immunodeficiency virus type 1 group M subtype B, UniProt P04585)", "T3 construct": "HIV-1 reverse transcriptase", "details": "cited from earlier work"}, "[7]": {"biological_target": "T4, α-Amylase of human saliva (Homo sapiens, UniProt P0DUB6)", "T4 construct": "α-Amylase of human saliva; host or cells: human saliva", "T4 sequence (P0DUB6 16-511)": "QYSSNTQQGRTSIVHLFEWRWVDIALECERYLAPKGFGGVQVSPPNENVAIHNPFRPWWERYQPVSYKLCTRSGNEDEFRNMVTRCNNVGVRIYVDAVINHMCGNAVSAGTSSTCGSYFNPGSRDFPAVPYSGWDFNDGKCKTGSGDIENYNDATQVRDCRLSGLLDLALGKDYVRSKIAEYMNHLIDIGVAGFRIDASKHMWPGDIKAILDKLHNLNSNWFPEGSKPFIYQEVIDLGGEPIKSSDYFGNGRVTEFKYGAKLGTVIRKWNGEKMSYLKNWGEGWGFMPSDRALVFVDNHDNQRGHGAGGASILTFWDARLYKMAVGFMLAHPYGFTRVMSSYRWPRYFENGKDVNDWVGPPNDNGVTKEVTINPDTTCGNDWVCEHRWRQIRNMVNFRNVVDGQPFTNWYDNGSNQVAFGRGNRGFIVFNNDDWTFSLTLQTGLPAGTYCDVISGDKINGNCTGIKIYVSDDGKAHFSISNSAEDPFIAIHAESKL", "details": "cited from earlier work"}, "[8]": {"tested_on": "male accessory reproductive organs and preputial organs", "assay": "EGCG ip 7 days, male rats, body and organ weights", "type": "in vivo, rat", "method": "(§1) Male Sprague-Dawley rats (body weight 180 g±10 g) were used. Each group had 5 rats. […] Rats in the control group received 0.1 ml 30% ethanol."}, "[9]": {"assay": "EGCG ip 7 days, male rats, body and organ weights", "type": "in vivo, rat", "details": "based on the increase in the weight", "method": "as §1"}, "type 1 5α-reductase": {"tested_on": "type 1 5α-reductase", "type": "biochemical", "method": "[^3 H]4-MA binding assay were described in detail previously (Liang and Liao, 1992; Liang et al., 1983). […] The reaction was started by the addition of 25 μl of microsomes (25 μg protein). After 30-60 min incubation at 0° C., the [^3 H]4-MA bound to microsomes was collected on a Whatman GF/F glass fiber, washed and radioactivity determined (Liang and Liao, 1992).\nThe reaction was started by the addition of 25 μl of microsomes (25 μg protein). The mixture was incubated at 37° for 30-60 min and stopped by addition of 0.5 ml of ethyl acetate and mixing for 1 min. The organic solvent extract was removed under vacuum."}, "[10]": {"details": "based on the increase in the weight"}}, "note": "Values joined by “and” are separate entries in the source; they are usually repeats but may differ in a detail not shown here. Equal entries are not always repeated. Where two headings read alike, the source gives them in different places.", "data": [{"smiles": "CCCCC/C=C\\C/C=C\\C/C=C\\CCCCC(=O)O", "note": "[γ-Linolenic acid, γ-linolenic acid]", "values": [{"measurement": "extent of inhibition by 10 μM γ-LA", "setting": "[1]", "value": "93% and 52% and 88%"}, {"measurement": "inhibition before removal of free γ-LA", "setting": "[1]", "value": 78, "unit": "%"}, {"measurement": "maximal binding of [^3 H]4-MA", "setting": "[1]", "value": "0.45 pmol/10 μg protein and 0.40 pmol/10 μg protein"}, {"measurement": "onset of inhibition", "setting": "[1]", "value": "within a minute"}, {"measurement": "inhibition after microsomes reisolated to remove free γ-LA", "setting": "[1]; reversibility test", "value": 63, "unit": "%"}, {"measurement": "L/R sebum ratio at end of treatment", "setting": "[2]; 20 mg twice a day, 6 days", "value": 0.22}, {"measurement": "L/R sebum ratio recovered after treatment stopped", "setting": "[2]; 16 days after stop", "value": "1.20±0.14"}, {"measurement": "competition with testosterone or NADPH", "setting": "microsomal 5α-reductase", "value": "did not appear to compete with testosterone or NADPH"}, {"measurement": "Km", "setting": "microsomal 5α-reductase; 5 μM γ-LA, 2.0 without, read-out: apparent Km value for NADPH", "value": 3.1, "unit": "µM"}, {"measurement": "Vmax", "setting": "microsomal 5α-reductase; 5 μM γ-LA, 7.5 without", "value": "2.8 pmol 5α-DHT formed/mg protein/15 min"}, {"measurement": "Km", "setting": "microsomal 5α-reductase; read-out: apparent Km value for testosterone, 5 μM γ-LA, 2.4 without", "value": 4.5, "unit": "µM"}, {"measurement": "visible change in cell morphology", "setting": "[3]", "value": "did not produce any visible"}, {"measurement": "activity at 1 µM", "setting": "PC-3; 1 μM", "value": "98 ± 6", "unit": "%"}, {"measurement": "activity at 5 µM", "setting": "PC-3; 5 μM", "value": "50 ± 3", "unit": "%"}, {"measurement": "activity at 20 µM", "setting": "PC-3; 20 μM", "value": "2 ± 2", "unit": "%"}]}, {"smiles": "O=C(O[C@@H]1Cc2c(O)cc(O)cc2O[C@@H]1c1cc(O)c(O)c(O)c1)c1cc(O)c(O)c(O)c1", "note": "[EGCG, (-)Epigallocatechin-3-gallate]", "values": [{"measurement": "tumor reduction", "setting": "[4]", "value": 50, "unit": "%"}, {"measurement": "body weight reduction", "setting": "[5]; 10 mg per day", "value": "about 10%"}, {"measurement": "coagulating glands weight reduction", "setting": "[5]; 10 mg per day", "value": "about 30%"}, {"measurement": "dorsolateral prostate weight reduction", "setting": "[5]; 10 mg per day", "value": "about 30%"}, {"measurement": "effect on weights of testis and kidney", "setting": "[5]; 10 mg per day", "value": "not significant"}, {"measurement": "preputial glands weight loss", "setting": "[5]; 10 mg per day", "value": "20 to 25", "unit": "%"}, {"measurement": "seminal vesicles weight loss", "setting": "[5]; 10 mg per day", "value": "20 to 25", "unit": "%"}, {"measurement": "ventral prostate weight reduction", "setting": "[5]; 10 mg per day", "value": "about 30%"}, {"measurement": "body weight loss", "setting": "[5]; 10 mg per day, discussion", "value": "less than 10%"}, {"measurement": "prostate weight loss", "setting": "[5]; 10 mg per day, discussion", "value": "more than 30%"}, {"measurement": "body weight reduction", "setting": "[5]; 15 mg per day", "value": "about 25%"}, {"measurement": "effect on weights of testis and kidney", "setting": "[5]; 15 mg per day", "value": "≤ 10", "unit": "%"}, {"measurement": "weight reduction for all of these organs", "setting": "[5]; 15 mg per day, prostates, coagulating glands, seminal vesicles, preputial glands", "value": "≥ 60", "unit": "%"}, {"measurement": "reversibility of body weight effect", "setting": "[5]; application stopped, FIG. 38", "value": "reversible"}, {"measurement": "organ weights", "setting": "[5]; male rats, ventral and dorsolateral prostates, coagulating glands, seminal vesicles, preputial glands", "value": "without affecting the weight of testis or kidney"}, {"measurement": "IC50", "setting": "[6]", "value": 0.04, "unit": "µM"}, {"measurement": "IC50", "setting": "[7]", "value": "50 to 500", "unit": "µM"}, {"measurement": "final body weight", "setting": "[8]; 15 mg/day, 7 days, control 238.2 ± 10.6", "value": "191.8 ± 12.0", "unit": "g"}, {"measurement": "Coagulating gland", "setting": "[8]; 15 mg/day, control 78.0 ± 5.9", "value": "45.5 ± 11.7", "unit": "mg"}, {"measurement": "Preputial gland", "setting": "[8]; 15 mg/day, control 126.8 ± 24.8", "value": "76.1 ± 33.1", "unit": "mg"}, {"measurement": "Ventral prostate", "setting": "[8]; 15 mg/day, control 201.9 ± 36.2", "value": "142.2 ± 10.7", "unit": "mg"}, {"measurement": "Seminal Vesicle", "setting": "[8]; 15 mg/day, control 234.3 ± 11.7", "value": "164.9 ± 30.4", "unit": "mg"}, {"measurement": "Coagulating gland, % of Control, Final", "setting": "[8]; based on the full weight", "value": "58.3 % of Control"}, {"measurement": "Final body weight, % of Control, Final", "setting": "[8]; based on the full weight", "value": "80.5 % of Control"}, {"measurement": "Preputial gland, % of Control, Final", "setting": "[8]; based on the full weight", "value": "60.0 % of Control"}, {"measurement": "Seminal Vesicle, % of Control, Final", "setting": "[8]; based on the full weight", "value": "70.4 % of Control"}, {"measurement": "Ventral prostate, % of Control, Final", "setting": "[8]; based on the full weight", "value": "70.4 % of Control"}, {"measurement": "Coagulating gland, % of Control, Increase", "setting": "[8]; [10]", "value": "39.8 % of Control"}, {"measurement": "Seminal Vesicle, % of Control, Increase", "setting": "[8]; [10]", "value": "52.3 % of Control"}, {"measurement": "Ventral prostate, % of Control, Increase", "setting": "[8]; [10]", "value": "62.0 % of Control"}, {"measurement": "Body weight, % of Control, Increase", "setting": "[9]", "value": "20.3 % of Control"}, {"measurement": "competition with testosterone or NADPH", "setting": "type 1 5α-reductase", "value": "did not appear to compete with testosterone or NADPH"}]}]}
